This assay addresses human Cereblon WT GST-tagged protein (Homo sapiens (Human), UniProt Q96SW2). Nature of the assay: CRBN-binding affinity, HTRF (CEREBLON BINDING kit). The method in brief:
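GST-tagged human WT Cereblon incubated with compound, then Thalidomide-Re tracer and anti-GST Eu antibody added. Displacement read by HTRF, reported as CRBN binding inhibition rate against blank control wells without protein.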
human Cereblon WT GST-tagged protein, sequence (Q96SW2 whole entry): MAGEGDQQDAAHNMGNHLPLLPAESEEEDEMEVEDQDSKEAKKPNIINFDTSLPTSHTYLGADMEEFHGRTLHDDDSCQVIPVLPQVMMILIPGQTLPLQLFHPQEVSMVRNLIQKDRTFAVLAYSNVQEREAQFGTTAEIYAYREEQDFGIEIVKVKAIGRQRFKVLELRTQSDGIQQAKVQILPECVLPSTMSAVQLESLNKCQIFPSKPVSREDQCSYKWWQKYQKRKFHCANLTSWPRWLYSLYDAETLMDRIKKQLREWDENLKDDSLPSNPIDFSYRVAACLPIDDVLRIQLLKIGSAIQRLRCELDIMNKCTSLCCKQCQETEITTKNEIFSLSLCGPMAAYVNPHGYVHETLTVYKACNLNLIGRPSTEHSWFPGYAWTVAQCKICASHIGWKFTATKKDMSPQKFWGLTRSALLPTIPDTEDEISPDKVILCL
Usually IC50 stands for the midpoint of a concentration-inhibition curve. Read a high IC50 as lower potency. `O=C1CCC(N2Cc3c(ccc(CN4C5CC4CN(C(=O)c4ccccc4-c4ccc(Cl)cc4)C5)c3F)C2=O)C(=O)N1` (stereo not drawn) [GT-05666, 3-(5-((3-(4′-chloro-[1,1′-biphenyl]-2-carbonyl)-3,6-diazabicyclo[3.1.1]heptan-6-yl)methyl)-4-fluoro-1-oxoisoindolin-2-yl)piperidine-2,6-dione] showed an IC50 of 690 nM.

The molecule `O=C1CCC(N2Cc3cc(CN4C5CC4CN(C(=O)c4ccccc4-c4ccc(Cl)cc4)C5)c(F)cc3C2=O)C(=O)N1` (stereo not drawn) [GT-05667, 3-(5-((3-(4′-chloro-[1,1′-biphenyl]-2-carbonyl)-3,6-diazabicyclo[3.1.1]heptan-6-yl)methyl)-6-fluoro-1-oxoisoindolin-2-yl)piperidine-2,6-dione] showed an IC50 of 750 nM.

The molecule `O=C1CCC(N2Cc3cc(CN4C5CC4CN(C(=O)c4ccccc4-c4ccc(Cl)cc4)C5)cc(F)c3C2=O)C(=O)N1` (stereo not drawn) [GT-05668, 3-(5-((3-(4′-chloro-[1,1′-biphenyl]-2-carbonyl)-3,6-diazabicyclo[3.1.1]heptan-6-yl)methyl)-7-fluoro-1-oxoisoindolin-2-yl)piperidine-2,6-dione] returned an IC50 of 650 nM.

Turning to `O=C1CCC(N2Cc3cc(CN4CC5CC(C4)N5C(=O)c4ccccc4-c4ccc(Cl)cc4)ccc3C2=O)C(=O)N1` (stereo not drawn) [GT-05669, 3-(5-((6-(4′-chloro-[1,1′-biphenyl]-2-carbonyl)-3,6-diazabicyclo[3.1.1]heptan-3-yl)methyl)-1-oxoisoindolin-2-yl)piperidine-2,6-dione], the IC50 worked out at 630 nM. This IC50 and that of the molecule before are within 1.5-fold of each other.

Consider `CC1(C)CCC(CN2C3CC2CN(C(=O)c2ccc4c(c2)CN(C2CCC(=O)NC2=O)C4=O)C3)=C(c2ccc(F)cc2)C1` (stereo not drawn) [GT-05671, 3-(5-(6-((4′-fluoro-5,5-dimethyl-3,4,5,6-tetrahydro-[1,1′-biphenyl]-2-yl)methyl)-3,6-diazabicyclo[3.1.1]heptane-3-carbonyl)-1-oxoisoindolin-2-yl)piperidine-2,6-dione], for which the IC50 worked out at 300 nM.

With `CC1(C)CC(c2ccc(Cl)cc2)=C(CN2CCN(C(=O)c3ccc4c(c3)CN(C3CCC(=O)NC3=O)C4=O)CC2)CO1` (stereo not drawn) [GT-05673, 3-(5-(4-((4-(4-chlorophenyl)-6,6-dimethyl-5,6-dihydro-2H-pyran-3-yl)methyl)piperazine-1-carbonyl)-1-oxoisoindolin-2-yl)piperidine-2,6-dione], the IC50 came to 1140 nM.

`CC1(C)CCC(C(=O)N2CC3(C2)CN(C(=O)c2ccc4c(c2)CN(C2CCC(=O)NC2=O)C4=O)C3)=C(c2ccc(Cl)cc2)C1` (stereo not drawn) [GT-05682, 3-(5-(6-(4′-chloro-5,5-dimethyl-3,4,5,6-tetrahydro-[1,1′-biphenyl]-2-carbonyl)-2,6-diazaspiro[3.3]heptane-2-carbonyl)-1-oxoisoindolin-2-yl)piperidine-2,6-dione] returned an IC50 of 570 nM.

In the case of `O=C1CCC(N2Cc3cc(CN4CCN(C(=O)c5ccccc5-c5ccc(Cl)cc5)CC4)cc(F)c3C2=O)C(=O)N1` (stereo not drawn) [GT-05700, 3-(5-((4-(4′-chloro-[1,1′-biphenyl]-2-carbonyl)piperazin-1-yl)methyl)-7-fluoro-1-oxoisoindolin-2-yl)piperidine-2,6-dione], the IC50 worked out at 1220 nM.

For `O=C1CCC(N2Cc3c(CN4CCN(C(=O)c5ccccc5-c5ccc(Cl)cc5)CC4)cccc3C2=O)C(=O)N1` (stereo not drawn) [GT-05701, 3-(4-((4-(4′-chloro-[1,1′-biphenyl]-2-carbonyl)piperazin-1-yl)methyl)-1-oxoisoindolin-2-yl)piperidine-2,6-dione], the IC50 came out at 1800 nM.

The molecule `O=C1CCC(N2Cc3cc(CN4CC5CC(C4)N5Cc4ccccc4-c4ccc(Cl)cc4)ccc3C2=O)C(=O)N1` (stereo not drawn) [GT-05704, 3-(5-((6-((4′-chloro-[1,1′-biphenyl]-2-yl)methyl)-3,6-diazabicyclo[3.1.1]heptan-3-yl)methyl)-1-oxoisoindolin-2-yl)piperidine-2,6-dione] had an IC50 of 680 nM.

Molecule `O=C1CCC(N2Cc3cc(C(=O)N4CC5CC(C4)N5Cc4ccccc4-c4ccc(Cl)cc4)ccc3C2=O)C(=O)N1` (stereo not drawn) [GT-05705, 3-(5-(6-((4′-chloro-[1,1′-biphenyl]-2-yl)methyl)-3,6-diazabicyclo[3.1.1]heptane-3-carbonyl)-1-oxoisoindolin-2-yl)piperidine-2,6-dione] registered an IC50 of 880 nM.

The molecule `O=C1CCC(N2Cc3cc(CN4CC5CC4CN5Cc4ccccc4-c4ccc(Cl)cc4)ccc3C2=O)C(=O)N1` (stereo not drawn) [GT-05707, 3-(5-((5-((4′-chloro-[1,1′-biphenyl]-2-yl)methyl)-2,5-diazabicyclo[2.2.1]heptan-2-yl)methyl)-1-oxoisoindolin-2-yl)piperidine-2,6-dione] displayed a half-inhibitory concentration (IC50) of 710 nM.

`O=C1CCC(N2Cc3cc(CN4CC5(C4)CN(C(=O)c4ccccc4-c4ccc(Cl)cc4)C5)ccc3C2=O)C(=O)N1` (stereo not drawn) [GT-05708, 3-(5-((6-(4′-chloro-[1,1′-biphenyl]-2-carbonyl)-2,6-diazaspiro[3.3]heptan-2-yl)methyl)-1-oxoisoindolin-2-yl)piperidine-2,6-dione] displayed a 50% inhibitory concentration (IC50) of 550 nM.

Molecule `O=C1CCC(N2C(=O)c3ccc(CN4CCN(Cc5ccncc5-c5ccc(Cl)cc5)CC4)cc3C2=O)C(=O)N1` (stereo not drawn) [GT-05731, 5-((4-((3-(4-chlorophenyl)pyridin-4-yl)methyl)piperazin-1-yl)methyl)-2-(2,6-dioxopiperidin-3-yl)isoindoline-1,3-dione] yielded an IC50 of 1650 nM.

The molecule `O=C1CCC(N2Cc3cc(CN4CC5CC4CN5C(=O)c4ccccc4-c4ccc(Cl)cc4)ccc3C2=O)C(=O)N1` (stereo not drawn) [GT-05776, 3-(5-((5-(4′-chloro-[1,1′-biphenyl]-2-carbonyl)-2,5-diazabicyclo[2.2.1]heptan-2-yl)methyl)-1-oxoisoindolin-2-yl)piperidine-2,6-dione] came in with an IC50 of 420 nM. This IC50 lies about 3.9-fold lower than the previous one.

`CC1(C)CCC(CN2CC3CCC2CN3Cc2cc(F)c3c(c2)CN(C2CCC(=O)NC2=O)C3=O)=C(c2ccc(Cl)cc2)C1` (stereo not drawn) [GT-05781, 3-(5-((5-((4′-chloro-5,5-dimethyl-3,4,5,6-tetrahydro-[1,1′-biphenyl]-2-yl)methyl)-2,5-diazabicyclo[2.2.2]octan-2-yl)methyl)-7-fluoro-1-oxoisoindolin-2-yl)piperidine-2,6-dione] showed an IC50 of 710 nM.

In the case of `CC1(C)CCC(CN2CCC(Nc3ccc4c(c3)CN(C3CCC(=O)NC3=O)C4=O)CC2)=C(c2ccc(Cl)cc2)C1` (stereo not drawn) [GT-05782, 3-(5-((1-((4′-chloro-5,5-dimethyl-3,4,5,6-tetrahydro-[1,1′-biphenyl]-2-yl)methyl)piperidin-4-yl)amino)-1-oxoisoindolin-2-yl)piperidine-2,6-dione], the IC50 was found to be 1760 nM.

`CC1(C)CCC(C(=O)N2CCC(Nc3ccc4c(c3)CN(C3CCC(=O)NC3=O)C4=O)CC2)=C(c2ccc(Cl)cc2)C1` (stereo not drawn) [GT-05783, 3-(5-((1-(4′-chloro-5,5-dimethyl-3,4,5,6-tetrahydro-[1,1′-biphenyl]-2-carbonyl)piperidin-4-yl)amino)-1-oxoisoindolin-2-yl)piperidine-2,6-dione] yielded a half-maximal inhibitory concentration (IC50) of 940 nM. This IC50 lies about 1.9-fold lower than the previous one.

`CC1(C)CCC(CN2CCC(Nc3ccc4c(c3)CN(C3CCC(=O)NC3=O)C4=O)CC2)=C(c2ccc(F)cc2)C1` (stereo not drawn) [GT-05785, 3-(5-((1-((4′-fluoro-5,5-dimethyl-3,4,5,6-tetrahydro-[1,1′-biphenyl]-2-yl)methyl)piperidin-4-yl)amino)-1-oxoisoindolin-2-yl)piperidine-2,6-dione] came in with an IC50 of 1250 nM.

As for `CC1(C)CCC(C(=O)N2CCC(Nc3ccc4c(c3)CN(C3CCC(=O)NC3=O)C4=O)CC2)=C(c2ccc(F)cc2)C1` (stereo not drawn) [GT-05786, 3-(5-((1-(4′-fluoro-5,5-dimethyl-3,4,5,6-tetrahydro-[1,1′-biphenyl]-2-carbonyl)piperidin-4-yl)amino)-1-oxoisoindolin-2-yl)piperidine-2,6-dione], the IC50 turned out to be 1070 nM. This IC50 and that of the molecule before are within 1.5-fold of each other.

Take `CC1(C)CCC(CN2CC3CCC2CN3C(=O)c2ccc3c(c2)CN(C2CCC(=O)NC2=O)C3=O)=C(c2ccc(Cl)cc2)C1` (stereo not drawn) [GT-05795, 3-(5-(5-((4′-chloro-5,5-dimethyl-3,4,5,6-tetrahydro-[1,1′-biphenyl]-2-yl)methyl)-2,5-diazabicyclo[2.2.2]octane-2-carbonyl)-1-oxoisoindolin-2-yl)piperidine-2,6-dione]: the IC50 is 940 nM.

Regarding `O=C1CCC(N2Cc3c(CN4CCN(CC5=C(c6ccc(F)cc6)CCCC5)CC4)cccc3C2=O)C(=O)N1` (stereo not drawn) [GT-05861, 3-(4-((4-((4′-fluoro-3,4,5,6-tetrahydro-[1,1′-biphenyl]-2-yl)methyl)piperazin-1-yl)methyl)-1-oxoisoindolin-2-yl)piperidine-2,6-dione], the IC50 came to 1290 nM.

The molecule `O=C1CCC(N2Cc3cc(C(=O)N4CCN(CC5=C(c6ccc(F)cc6)CCCC5)CC4)ccc3C2=O)C(=O)N1` (stereo not drawn) [GT-05863, 3-(5-(4-((4′-fluoro-3,4,5,6-tetrahydro-[1,1′-biphenyl]-2-yl)methyl)piperazine-1-carbonyl)-1-oxoisoindolin-2-yl)piperidine-2,6-dione] had an IC50 of 1020 nM.

Turning to `O=C1CCC(N2Cc3cc(-c4ccc(CN5CCN(C(=O)c6ccccc6-c6ccc(Cl)cc6)CC5)cc4)ccc3C2=O)C(=O)N1` (stereo not drawn) [GT-05874, 3-(5-(4-((4-(4′-chloro-[1,1′-biphenyl]-2-carbonyl)piperazin-1-yl)methyl)phenyl)-1-oxoisoindolin-2-yl)piperidine-2,6-dione], the IC50 came to 440 nM.

`O=C1CCC(N2Cc3cc(N4C5CCC4CN(C(=O)c4ccccc4-c4ccc(Cl)cc4)C5)ccc3C2=O)C(=O)N1` (stereo not drawn) [GT-05875, 3-(5-(3-(4′-chloro-[1,1′-biphenyl]-2-carbonyl)-3,8-diazabicyclo[3.2.1]octan-8-yl)-1-oxoisoindolin-2-yl)piperidine-2,6-dione] showed an IC50 of 510 nM.

The molecule `O=C1CCC(N2Cc3cc(CCN4CCN(Cc5ccccc5-c5ccc(Cl)cc5)CC4)ccc3C2=O)C(=O)N1` (stereo not drawn) [GT-05876, 3-(5-(2-(4-((4′-chloro-[1,1′-biphenyl]-2-yl)methyl)piperazin-1-yl)ethyl)-1-oxoisoindolin-2-yl)piperidine-2,6-dione] yielded an IC50 of 120 nM.

For the molecule `O=C1CCC(N2Cc3cc(CCCN4CCN(Cc5ccccc5-c5ccc(Cl)cc5)CC4)ccc3C2=O)C(=O)N1` (stereo not drawn) [GT-05893, 3-(5-(3-(4-((4′-chloro-[1,1′-biphenyl]-2-yl)methyl)piperazin-1-yl)propyl)-1-oxoisoindolin-2-yl)piperidine-2,6-dione], the IC50 is 1150 nM.

For the origin of these results see US20260028326A1, “COMPOUND BASED ON ISOINDOLINE-SUBSTITUTED GLUTARIMIDE BACKBONE AND USE THEREOF” (GLUETACS THERAPEUTICS (SHANGHAI) CO., LTD., priority 2022, published 2026).
